Measurements reported in patent publication US20080085889A1, “Amidomethyl-Substituted 1-(Carboxyalkyl) Cyclopentyl-Carbonylamino-Benzazepine-N-Acetic Acid Compounds, Process and Intermediate Products for Their Preparation and Pharmaceutical Compositions Containing Them” (SOLVAY PHARMACEUTICALS GmbH, priority 2003, published 2008).

How the values were obtained:
[1] = test system: pyramidal neurons of the hippocampal CA3 subfield; assay: Traumatic brain injury: delayed apoptotic neuronal death, neuronal densities in CA3 hippocampus; type: in vivo, Adult Wistar rats; details: for Neuronal densities CA3 hippocampus: traumatized right side, ± SEM
Procedure: 1. Traumatic Brain Injury: Delayed Apoptotic Neuronal Death
Contusing device. The contusing device consisted of a stainless steel tube, 40 cm in length, perforated at 1 cm intervals to prevent air compression in the tube. Adult Wistar rats, 230-270 g, were anesthetized with chloral hydrate, 400 mg/kg i.p., a craniotomy over the right hemisphere was made, the device guiding a falling weight onto the footplate resting upon the surface of the dura was placed perpendicular to the surface of the skull, and a force of 380 g×cm produced by a 20 g weight was selected to produce brain contusion. A maximum of 2.5 mm depression of the brain surface was allowed to avoid mechanical puncture of the dura. The center of the footplate was stereotaxically positioned 1.5 mm posterior and 2.5 mm lateral to the bregma. The rats underwent perfusion fixation 3 days after brain injury with a solution containing 4% paraformaldehyde in phosphate buffer.
Intracerebroventricular injections: Compounds were administered intracerebroventricularly (=i.c.v.) by means of a Hamilton syringe in a volume of 5-15 μl. Injections were performed over 5 min, 15 min-8 hrs after trauma using the following stereotaxic coordinates: AP=−0.5 mm, L=−2 mm and V=−5.5 in relation to bregma (Swanson, L. W. (1992) Brain Maps: Structure of the Rat Brain, Elsevier, Amsterdam).
Morphometric analysis in hippocampus. The damage in the hippocampal CA3 subfield was determined stereologically at 5 different rostrocaudal levels extending from 10.21 to 11.21 mm (Swanson, L. W. (1992) Brain Maps Structure of the Rat Brain, Elsevier, Amsterdam) and throughout its mediolateral axis three days after traumatic injury. To quantitatively assess neuronal loss in the hippocampus, stereological disector technique (Cruz-Orive, L. M. & Weibel, E. R. (1990) Am. J. Physiol. 258, L148-L156) was used to estimate numerical density (Nv) of pyramidal neurons. An unbiased counting frame (0.05 mm×0.05 mm; disector height 0.01 mm) and a high-aperture objective (×40) were used for sampling. Normal neurons were identified by the presence of the typical nuclei with clear nucleoplasm and distinct nucleolus surrounded by cytoplasm containing Nissl substance. The border between CA2 and CA3 subfields was considered as the point where the looser arrangement of large pyramidal cells goes into densely packed pyramidal cells of the subfield CA3. An arbitrary line connecting the lateral ends of the dentate granule cell layers was considered a junction between subfields CA3 and CA4.
Dose response of the neuroprotective effect of the test substance of Example 3 when administered i.c.v. 15 min after trauma to adult Wistar rats was measured. Neuronal densities were determined in the CA3 hippocampal subfield as described in the methods. Densities of CA3 neurons ±Standard Error of […] (=SEM) in 6 stereotactic levels in the left non-traumatized side of vehicle treated rats and the traumatized right side of vehicle treated rats and in rats treated with the test substance of Example 3 were measured and the results listed in table 6 below.
The time window of the neuroprotective effect of test substance of Example 3 when administered i.c.v. 2, 4 or 8 hrs after trauma to adult Wistar rats was measured. Neuronal densities were determined in the CA3 hippocampal subfield as described in the methods. Densities of CA3 neurons ±SEM in 6 stereotactic levels in the traumatized right side of rats treated with either vehicle or the test compound of Example 3 were measured and the results listed in table 7 below.

[2] = test system: maximal SAP response to Big-ET; assay: In vivo inhibition of maximal SAP response to Big-ET in anesthetized rats after oral administration; parameters: species or system Rats (Sprague-Dawley); details: oral by gavage, 100 μmol/kg, 1 h before Big-ET challenge; mean ± standard error; negative = inhibition
Procedure: Rats (Sprague-Dawley, CRLD=Charles River) were anaesthetised with 1 ml/kg Rompun/Ketavet 1:1. A pressure transducer (Statham) was inserted into the carotid artery to measure blood pressure.
For oral testing, the substances (or vehicle) were given by gavage at doses of 100 μmol/kg each, 1 h before the Big-ET challenge, and blood pressure and heart rate were monitored as described above.
The inhibition of maximal SAP response to Big-ET in anesthetized rats following oral administration of the test substances of Formula I is set forth in the following Table 3c: […]
Data given in table 3c as negative values indicate an inhibitory effect. Values are means from 3-6 independent series of experiments ±standard error.

CC(C)NC(=O)CC(CC1(C(=O)N[C@H]2CCc3ccccc3N(CC(=O)O)C2=O)CCCC1)C(=O)O (stereo in doubt) [Example 3, (2″rel1″)-2-{[(3S)-1-({[1-(carboxymethyl)-2-oxo-2,3,4,5-tetrahydro-1H-1-benzazepin-3-yl]amino}-carbonyl)cyclopentyl]methyl}-4-(isopropylamino)-4-oxobutyric acid]
Neuronal densities CA3 hippocampus ([1]; 3 μg i.c.v. 15 min after trauma, stereotactic level 10.21): 98.40 ± 4.39 cells × 10^3/mm^3
Neuronal densities CA3 hippocampus ([1]; 3 μg i.c.v. 15 min after trauma, stereotactic level 10.41): 89.00 ± 5.05 cells × 10^3/mm^3
Neuronal densities CA3 hippocampus ([1]; 3 μg i.c.v. 15 min after trauma, stereotactic level 10.61): 72.80 ± 6.01 cells × 10^3/mm^3
Neuronal densities CA3 hippocampus ([1]; 3 μg i.c.v. 15 min after trauma, stereotactic level 10.81): 84.20 ± 6.47 cells × 10^3/mm^3
Neuronal densities CA3 hippocampus ([1]; 3 μg i.c.v. 15 min after trauma, stereotactic level 11.01): 86.00 ± 7.44 cells × 10^3/mm^3
Neuronal densities CA3 hippocampus ([1]; 3 μg i.c.v. 15 min after trauma, stereotactic level 11.21): 95.40 ± 6.96 cells × 10^3/mm^3
effect on hippocampal neuronal loss ([1]; 10 μg i.c.v. 2, 4 or 8 hrs after trauma, P<0.001 at 2 and 4 hrs, P<0.01 for 8 hrs): partially prevented hippocampal neuronal loss
Neuronal densities CA3 hippocampus ([1]; 10 μg i.c.v. 15 min after trauma, stereotactic level 10.21): 108.60 ± 4.30 cells × 10^3/mm^3
Neuronal densities CA3 hippocampus ([1]; 10 μg i.c.v. 15 min after trauma, stereotactic level 10.41): 108.60 ± 5.34 cells × 10^3/mm^3
Neuronal densities CA3 hippocampus ([1]; 10 μg i.c.v. 15 min after trauma, stereotactic level 10.61): 111.40 ± 7.09 cells × 10^3/mm^3
Neuronal densities CA3 hippocampus ([1]; 10 μg i.c.v. 15 min after trauma, stereotactic level 10.81): 112.00 ± 6.42 cells × 10^3/mm^3
Neuronal densities CA3 hippocampus ([1]; 10 μg i.c.v. 15 min after trauma, stereotactic level 11.01): 111.40 ± 7.11 cells × 10^3/mm^3
Neuronal densities CA3 hippocampus ([1]; 10 μg i.c.v. 15 min after trauma, stereotactic level 11.21): 119.20 ± 3.70 cells × 10^3/mm^3
Neuronal densities CA3 hippocampus ([1]; 10 μg i.c.v. 2 hrs after trauma, stereotactic level 10.21): 72.30 ± 4.80 cells × 10^3/mm^3
Neuronal densities CA3 hippocampus ([1]; 10 μg i.c.v. 2 hrs after trauma, stereotactic level 10.41): 68.10 ± 6.30 cells × 10^3/mm^3
Neuronal densities CA3 hippocampus ([1]; 10 μg i.c.v. 2 hrs after trauma, stereotactic level 10.61): 60.80 ± 5.60 cells × 10^3/mm^3
Neuronal densities CA3 hippocampus ([1]; 10 μg i.c.v. 2 hrs after trauma, stereotactic level 10.81): 60.20 ± 9.40 cells × 10^3/mm^3
Neuronal densities CA3 hippocampus ([1]; 10 μg i.c.v. 2 hrs after trauma, stereotactic level 11.01): 63.00 ± 11.70 cells × 10^3/mm^3
Neuronal densities CA3 hippocampus ([1]; 10 μg i.c.v. 2 hrs after trauma, stereotactic level 11.21): 67.70 ± 14.00 cells × 10^3/mm^3
Neuronal densities CA3 hippocampus ([1]; 10 μg i.c.v. 4 hrs after trauma, stereotactic level 10.21): 72.20 ± 5.70 cells × 10^3/mm^3
Neuronal densities CA3 hippocampus ([1]; 10 μg i.c.v. 4 hrs after trauma, stereotactic level 10.41): 65.90 ± 8.80 cells × 10^3/mm^3
Neuronal densities CA3 hippocampus ([1]; 10 μg i.c.v. 4 hrs after trauma, stereotactic level 10.61): 63.00 ± 6.30 cells × 10^3/mm^3
Neuronal densities CA3 hippocampus ([1]; 10 μg i.c.v. 4 hrs after trauma, stereotactic level 10.81): 60.50 ± 10.50 cells × 10^3/mm^3
Neuronal densities CA3 hippocampus ([1]; 10 μg i.c.v. 4 hrs after trauma, stereotactic level 11.01): 62.20 ± 13.50 cells × 10^3/mm^3
Neuronal densities CA3 hippocampus ([1]; 10 μg i.c.v. 4 hrs after trauma, stereotactic level 11.21): 66.30 ± 15.90 cells × 10^3/mm^3
Neuronal densities CA3 hippocampus ([1]; 10 μg i.c.v. 8 hrs after trauma, stereotactic level 10.21): 62.00 ± 4.90 cells × 10^3/mm^3
Neuronal densities CA3 hippocampus ([1]; 10 μg i.c.v. 8 hrs after trauma, stereotactic level 10.41): 53.00 ± 6.44 cells × 10^3/mm^3
Neuronal densities CA3 hippocampus ([1]; 10 μg i.c.v. 8 hrs after trauma, stereotactic level 10.61): 53.00 ± 6.00 cells × 10^3/mm^3
Neuronal densities CA3 hippocampus ([1]; 10 μg i.c.v. 8 hrs after trauma, stereotactic level 10.81): 52.50 ± 4.48 cells × 10^3/mm^3
Neuronal densities CA3 hippocampus ([1]; 10 μg i.c.v. 8 hrs after trauma, stereotactic level 11.01): 61.80 ± 4.48 cells × 10^3/mm^3
Neuronal densities CA3 hippocampus ([1]; 10 μg i.c.v. 8 hrs after trauma, stereotactic level 11.21): 65.90 ± 4.90 cells × 10^3/mm^3
Neuronal densities CA3 hippocampus ([1]; 30 μg i.c.v. 15 min after trauma, stereotactic level 10.21): 108.40 ± 3.15 cells × 10^3/mm^3
Neuronal densities CA3 hippocampus ([1]; 30 μg i.c.v. 15 min after trauma, stereotactic level 10.41): 105.20 ± 5.76 cells × 10^3/mm^3
Neuronal densities CA3 hippocampus ([1]; 30 μg i.c.v. 15 min after trauma, stereotactic level 10.61): 94.20 ± 5.10 cells × 10^3/mm^3
Neuronal densities CA3 hippocampus ([1]; 30 μg i.c.v. 15 min after trauma, stereotactic level 10.81): 83.20 ± 7.10 cells × 10^3/mm^3
Neuronal densities CA3 hippocampus ([1]; 30 μg i.c.v. 15 min after trauma, stereotactic level 11.01): 80.20 ± 7.45 cells × 10^3/mm^3
Neuronal densities CA3 hippocampus ([1]; 30 μg i.c.v. 15 min after trauma, stereotactic level 11.21): 90.00 ± 9.24 cells × 10^3/mm^3
effect on hippocampal neuronal loss ([1]; 3, 10 or 30 μg i.c.v. 15 min after trauma, ANOVA P<0.001 for all three doses): partially prevented hippocampal neuronal loss
neuroprotective effect (time window) ([1]; administered i.c.v. up to 8 hrs after trauma): neuroprotective effect was still evident
neuroprotective effect (dose response) ([1]; i.c.v. after trauma): dose-dependent neuroprotective effect
most effective dose against hippocampal neuronal loss ([1]; of 3, 10 or 30 μg i.c.v. 15 min after trauma): 10 µg

CN(C)CCCN(C)C(=O)CC(CC1(C(=O)NC2CCc3ccccc3N(CC(=O)O)C2=O)CCCC1)C(=O)O (stereo not drawn) [Example 64, 2-[(1-{[1-(carboxymethyl)-2-oxo-2,3,4,5-tetrahydro-1H-1-benzazepin-3-yl]carbamoyl}cyclopentyl)methyl]-4-{[3-(dimethylamino)propyl](methyl)amino}-4-oxobutanoic acid]
% substance-related inhibition of the maximum Big-ET effect on SAP vs. control [2]: −53 ± 5%
